For series [1] the following is noted: rat; for therapeutische Index (Q = LD₅₀/ED₂₀): acute test, intravenous injection.
Series [2] relates to Koronararterienokklusion. Nature of the series: Coronary artery occlusion, rat, i.v. (early-phase arrhythmias). The class given is in vivo, Ratte. The conditions noted are these: for Überlebensrate n. 20 min: 2 . 10⁻⁵ mol/kg i.v. 3 min before occlusion, control 33; for Normaler Sinusrhythmus / Tod durch Bradyk. / Auftreten von Arrhythmien VF / Auftreten von Arrhythmien VT / Auftreten von Arrhythmien andere: 2 . 10⁻⁵ mol/kg i.v.; for Normaler Sinusrhythmus: control 0; for Tod durch Bradyk.: control 30; for Auftreten von Arrhythmien VF: control 59; for Auftreten von Arrhythmien VT / Auftreten von Arrhythmien andere: control 82. How it is done:
Die Untersuchungen zur Beeinflussung der Arrhythmien in der Frühphase nach Koronarokklusion erfolgten an männlichen Wistarratten (Körpermasse 200-250 g) in Pentobarbitalnarkose. Nach Ligatur der linken Koronararterie wurden die Überlebensrate sowie das Auftreten verschiedener Arrhythmieformen innerhalb 20 min nach Okklusion bewertet. Für die überlebenden Tiere erfolgten zusätzlich die Bestimmung des Zeitpunktes des Einsetzens der Arrhythmien und deren Dauer in min sowie die Zahl der ventrikulären Extrasystolen. Das Arrhythmiegeschehen in der Frühphase nach Ligatur wurde von einer Reihe Verbindungen der allgemeinen Formel 1 nach i.v.-Injektion im positiven Sinne beeinflußt. Beispielsweise wirken (Z)- bzw. (E)-2-Amino-5-chlorbenzophenonamidinohydrazonacetat (Beispiel 21 bzw. 32) dosisabhängig und stark protektiv nach i.v. Gabe (3 min vor Okklusion) von 1 . 10⁻⁵ und 2,1 . 10⁻⁵mol/kg. Die an der Aconitinarrhythmie gefundene gute antiarrhythmische Wirkung wurde damit an der Okklusion bestätigt, was durch die in Tabelle 7 zusammengestellten Ergebnisse dokumentiert werden soll. TABELLE 7

In series [3] the test system is g-Strophantinarrhythmie. Nature of the series: g-Strophanthin arrhythmia, guinea pig, i.v. The class given is in vivo, Meerschweinchen. The procedure:
Die Methode beruht auf der Erzeugung ventrikulärer Arrhythmien durch g-Strophantin, das männlichen Meerschweinchen in Urethannarkose (Körpermasse 300-350 g) in der Dosierung von 30 µg/kg/min über die Vena jugularis infundiert wurde. Bewertungskriterien sind hierbei die am EKG unter g-Strophantin zu beobachtenden ersten Extrasystolen sowie der Eintritt der Asystolie. Die Verzögerung des Auftretens dieser Ereignisse unter Substanzgabe wird berechnet und ist als Maß der antiarrhythmischen Effektivität zu werten.

Series [4] deals with Infarktgröße. Nature of the series: Infarct size determination (p-NBT), rat, i.v. The class given is in vivo, Ratte. The conditions noted are these: for Hemmung der Infarktgröße x %: significant. The source says: Die Bestimmung der Herzinfarktgröße ist ein wichtiger Parameter zum Nachweis antiischämischer Wirkqualitäten für eine Substanz. Die hier angewendete markohistochemische Infarktgrößenbestimmung durch Inkubation mit p-Nitroblautetrazoliumsalz (p-NBT) beruht auf einem Dehydrogenasenachweis, wobei p-NBT als Wasserstoffakzeptor dient und die damit verbundene Reduktion des Salzes zu einer Farbänderung desselben führt. Die Beeinflussung der Größe des ischämischen Areals - die Ischämie wurde durch Ligatur der linken Koronararterie männlicher Wistarratten (Körpermasse 200-250 g) erzeugt - wurde nach i.v. Applikation (3 min vor Okklusion) einiger Verbindungen der allgemeinen Formel 1 untersucht. Die hier erhobenen Befunde spiegeln eindeutig die myokardprotektive Wirkkomponente dieser Verbindungen wieder. […] (Beispiel 21) bzw. das (E)-/(Z)-2-Amino-5-chlorbenzophenon-N-phenylamidinohydrazonnitrat [B] (Beispiel 3) wurden die in Tabelle 9 wiedergegebenen Resultate erhalten. TABELLE 9

The test system of series [5] is isoprenalininduzierten Glykogenolyse. Nature of the series: Isoprenaline ischaemia, rat, i.v. and p.o. (heart glycogen content). Type of series: in vivo, Ratte. Conditions: mean of n = 10. How it is done: Der Myokardschutz durch verschiedene Verbindungen der allgemeinen Formel 1 wurde nach i.v. und p.o. Applikation der Verbindungen am Modell der Isoprenalinischämie der Ratte geprüft. Die für diese Untersuchungen verwendete Methode erfaßt die Veränderungen des Glykogengehaltes im Herzgewebe unter Isoprenalin und dessen Beeinflussung durch Testsubstanzen. Isoprenalin wurde dabei intraperitoneal in Dosis von 5 mg/kg verabfolgt. Die i.v. Injektion der Prüfstoffe erfolgte unmittelbar vor der Isoprenalingabe, die orale Applikation 30 min davor. Als Versuchstiere wurden männliche Wistarratten (Körpermasse 200-250 g) eingesetzt. Einige der Verbindungen zeigten eine auffallende myokardprotektive Wirksamkeit. […] Die nach i.v.- bzw. p.o.-Applikation aus je n = 10 Tieren pro Dosis beobachteten Hemmwerte (Mittelwerte) gegenüber der Isoprenalininwirkung sind in Tabelle 8 aufgeführt. Tabelle 8

The nature of series [6]: Toxicology, repeated oral dosing, rat. Conditions: per os, repeated administration.
Series [7] relates to schnellen Na⁺-Einwärtsstromes. Nature of the series: Voltage clamp on isolated adult rat heart cells.
A short description of series [8]: Clinical trial stage I, intravenous, man.
The nature of series [9]: Toxicology, repeated oral dosing, minipig. The conditions noted are these: per os, repeated administration.
The mark [10] stands for this setting: 5 . 10⁻⁷ mol/kg i.v., significant vs control.

Consider `CC[C@H]1[C@@H]2C[C@H]3[C@@H]4N(C)c5ccccc5[C@]45C[C@@H]([C@@H]2[C@H]5O)N3[C@@H]1O` [Ajmalin], for which, in [1], the “therapeutische Index (Q = LD₅₀/ED₂₀)” value is reported as 6,8.

For `N=C(NN=C(c1ccccc1)c1cc(Cl)ccc1N)Nc1ccccc1.O=[N+]([O-])O` [Beispiel 3, (E)-/(Z)-2-Amino-5-chlorbenzophenon-N-phenylamidinohydrazonnitrat], the “normalen Sinusrhythmus” value in series [2] (5 . 10⁻⁷ mol/kg i.v.) is 50%. For the same compound, in [2] (setting [10]), the “Auftreten verschiedener Arrhythmieformen (VF)” value was 10%, the “Auftreten verschiedener Arrhythmieformen (VT)” value was found to be 30%, the “Auftreten verschiedener Arrhythmieformen (andere)” value is 50% and the Überlebensrate is listed as 80%. Further, the “antiarrhythmische Wirkung gegenüber der g-strophantininduzierten Extrasystolie” value in series [3] (1 . 10⁻⁶ mol/kg i.v.) is listed as “+19%”. For the same compound, the “antiarrhythmische Wirkung gegenüber der g-strophantininduzierten Extrasystolie” value in series [3] (2,10 . 10⁻⁶ mol/kg i.v.) was “+35%”. Besides, the “ischämisches Gewebe x %” value in [4] (1 . 10⁻⁷ mol/kg i.v. 3 min before occlusion, control 46,1) was 21,0%. The “Hemmung der Infarktgröße x %” value in series [4] (1 . 10⁻⁷ mol/kg i.v.) is recorded as 54,4 s %.

`Cl.N=C(N)N/N=C(\c1ccccc1)c1cc(Cl)ccc1N` [Beispiel 30, (E)-2-Amino-5-chlorbenzophenonamidinohydrazonhydrochlorid]: the “Verzögerung des Eintritts der ersten Extrasystolen” value in series [3] (1,25 . 10⁻⁶ mol/kg i.v.) is given as 33%.

Take `CCOC(=O)Nc1ccc2c(c1)N(C(=O)CCN1CCOCC1)c1ccccc1S2` [Etmozin]: in series [1], the “therapeutische Index (Q = LD₅₀/ED₂₀)” value is given as 1,8.

For the compound `CCOc1ccccc1OCC(O)CNCCNCC(O)COc1ccccc1OCC` (centres unmarked) [Falirythmin], the “therapeutische Index (Q = LD₅₀/ED₂₀)” value in series [1] is listed as 11,5.

For `CC[C@H]1C2C[C@H]3[C@@H]4N(C)c5ccccc5[C@]45C[C@@H]([C@@H]2[C@H]5O)[N@@+]3(CC(O)CN(CC)CC)[C@@H]1O` (some centres unmarked) [Tachmalcor], the “therapeutische Index (Q = LD₅₀/ED₂₀)” value in series [1] is 25,5.

Regarding “(E)-2-Amino-5-chlorbenzophenonamidinohydrazonacetat [Beispiel 32]”, in series [2], the “Überlebensrate n. 20 min” value was determined as 71 s %, the “Normaler Sinusrhythmus” value amounted to 46 s %, the “Tod durch Bradyk.” value was 19 ns % and the “Auftreten von Arrhythmien VF” value is given as 8 s %. In series [2], the “Auftreten von Arrhythmien VT” value is reported as 13 s % and the “Auftreten von Arrhythmien andere” value is given as 54 ns %.

For the compound “(Z) -2-Amino-5-chlorbenzophenonamidinohydrazonacetat [Beispiel 21]”, the “x % Hemmung” value in series [5] (intravenös, 1,0 . 10⁻⁵ mol/kg) is listed as 48,7%; in series [5] (intravenös, 1,5 . 10⁻⁵ mol/kg), 37,6%; in series [5] (intravenös, 3,2 . 10⁻⁵ mol/kg) it was 45,0%; in [5] (intravenös, 3,2 . 10⁻⁶ mol/kg), 5,9%; in series [5] (intravenös, 4,6 . 10⁻⁶ mol/kg), 26,7%; in series [5] (intravenös, 5,0 . 10⁻⁵ mol/kg), 69,6%. Further, the “x % Hemmung” value in series [5] (peroral, 1,0 . 10⁻⁴ mol/kg) is reported as 25,6%; in series [5] (peroral, 1,9 . 10⁻⁴ mol/kg) it was 81,4%; in series [5] (peroral, 3,7 . 10⁻⁴ mol/kg), 71,4%; in [5] (peroral, 5,0 . 10⁻⁴ mol/kg) it was 85,3%; in [5] (peroral, 7,2 . 10⁻⁵ mol/kg, 30 min before isoprenaline), 37,2%. The “Überlebensrate n. 20 min” value in series [2] turned out to be 70 s %. For the same compound, in [2], the “Normaler Sinusrhythmus” value is 26 s %. In addition, the “Tod durch Bradyk.” value in [2] was determined as 25 ns %. Moreover, the “Auftreten von Arrhythmien VF” value in series [2] was found to be 8 s %. For the same compound, the “Auftreten von Arrhythmien VT” value in [2] is 13 s %. Moreover, the “Auftreten von Arrhythmien andere” value in series [2] worked out at 54 ns %. The “therapeutische Index (Q = LD₅₀/ED₂₀)” value in series [1] is on record as 40,0. The “therapeutische Index Qp.o.” value in series [1] (single oral administration) is listed as 74,3. The “Dosen als gut verträglich eingeschätzt” value in series [6] is 25 mg/kg; in [9] it was 30 mg/kg. The “schneller Na⁺-Einwärtsstrom” value in [7] is listed as “Hemmung”. Also, in series [3] (6,25 . 10⁻⁷ mol/kg i.v. 5 min before g-strophanthin infusion, significant), the “Verzögerung des Auftretens der ersten Extrasystolen” value was 28%. Further, the “ischämisches Gewebe x %” value in series [4] (2 . 10⁻⁵ mol/kg i.v. 3 min before occlusion, control 35,0) is 15,2%. The “Hemmung der Infarktgröße x %” value in [4] (2 . 10⁻⁵ mol/kg i.v.) is on record as 56,6 s %. Besides, the “Dosierung, ab der die antiarrhythmische Aktivität ausreichend erscheint” value in [8] is listed as ≥ 0,25 mg/kg. Moreover, the “Dosis, bei der die antiarrhythmische Aktivität beginnt” value in series [8] was 0,06 mg/kg.

Values taken from EP0433526A1, “Medicine for the treatment of heart-circulatory illnesses, of arrhythmics in particular” (Richter, Peter, Prof. Dr.sc.nat., priority 1989, dated 1991).
